Measurements from patent publication US12275958B2, “Gut organoid and method for producing the same” (DAI NIPPON PRINTING CO., LTD., priority 2017, dated 2025).

Tests used:
[1] = test system: hESC-derived gut organoid showing peristalsis-like movement; assay: In vitro contractility of human gut organoids (motile); type: cell-based; settings: 0.2 μM, aspect ratio from video; for frequency / rate of gut organoid contractile movement: days 80-90 in culture
Method: A single human embryonic stem cell (hESC)-derived gut organoid showing peristalsis-like movement (days 80-90 in culture) was treated with the peristaltic stimulator histamine (0.2 μM) and the cholinergic antagonist atropine sulfate (0.2 μM). Contractility responses were recorded using an inverted microscope. Image analysis software CL-Quant version 3.10 (Nikon Corporation) was used to visualize movements in the gut organoid. First, in each frame of the time-lapse images, the software was used to identify a specific region of the organoid. Second, the software fitted an ellipse to this region and calculated the ratio of the longest to shortest diameter to obtain an aspect ratio. Changes in the aspect ratios with time were plotted on the chart. Videos were recorded at 30 frames per second.

human gut organoids = assay: In vitro β-Ala-Lys-AMCA uptake by human gut organoids; type: cell-based; settings: 25 μM, 4 hours at 37° C., fluorescence
Method: Gut organoids grown in the differentiation induction medium 2 were washed with PBS and cultured in DMEM containing 25 μM fluorophore-conjugated dipeptide β-Ala-Lys-AMCA (Biotrend Chemicals) for 4 hours at 37° C. […] All sample images were recorded under standard conditions. For each concentration, 3 independent assays were performed.

Row | SMILES | contraction amplitude [1] | frequency / rate of gut organoid contractile movement [1] | uptake (peptide absorption) of the fluorophore-conjugated dipeptide by gut organoids (human gut organoids) | uptake (peptide absorption) of the fluorophore-conjugated dipeptide by gut organoids (human gut organoids; listed as β-Ala-Lys-N(c)-7-amino-4-methylcoumarin-3-acetic acid)
1 | CN1[C@@H]2CC[C@H]1CC(OC(=O)C(CO)c1ccccc1)C2.CN1[C@@H]2CC[C@H]1CC(OC(=O)C(CO)c1ccccc1)C2.O=S(=O)(O)O (some centres unmarked) [atropine, atropine sulfate] | decreased | decreased | – | –
2 | Cc1c(CC(=O)NCCCC[C@H](NC(=O)CCN)C(=O)O)c(=O)oc2cc(N)ccc12 [β-Ala-Lys-AMCA, β-Ala-Lys-N(c)-7-amino-4-methylcoumarin-3-acetic acid] | – | – | capable of uptake | showed peptide absorption
3 | NCCc1c[nH]cn1 [histamine] | – | increased | – | –
